Key:
DYT-TOR1A MEF EVs = assay: Quantitative LC-MS/MS proteomics of EVs from drug-treated DYT-TOR1A MEF cultures (ritonavir, salubrinal); type: cell-based, mouse; parameters: key to RTV Corrective Direction / RTV Corrective Direction, Grwd1 / RTV Corrective Direction, Srrm2 / RTV Corrective Direction, Rbm17 / RTV Corrective Direction, Dcaf8 / RTV Corrective Direction, Edil3 / RTV Corrective Direction, Timp3 / RTV Corrective Direction, Heatr3 / RTV Corrective Direction, Brd4 / RTV Corrective Direction, P3h4 / RTV Corrective Direction, Pacsin3 / RTV Corrective Direction, Naa50 / RTV Corrective Direction, Lpar6 / RTV Corrective Direction, Ndrg1 / RTV Corrective Direction, Kntc1 / RTV Corrective Direction, Cdk11b / RTV Corrective Direction, Sumo1 / RTV Corrective Direction, Lsm4 / RTV Corrective Direction, Hmga2 / RTV Corrective Direction, Cstf1 / RTV Corrective Direction, Tes / RTV Corrective Direction, Sbno1 / RTV Corrective Direction, Unc119b / RTV Corrective Direction, Cfdp1 / RTV Corrective Direction, Sec61b: YES = protein abundance effect opposite to DYT/WT; settings: EV protein abundance; for RTV Corrective Direction: DYT + RTV (ritonavir) vs DYT, direction compared with DYT/WT; for DYT + RTV/DYT Cohen's d: ritonavir (RTV)-treated DYT vs DYT
WT MEF EVs = assay: Quantitative LC-MS/MS proteomics of EVs from ISRIB-treated WT MEF cultures; type: cell-based, mouse; parameters: key to ISRIB and DYT Parallel Direction / ISRIB and DYT Parallel Direction, Ctdsp1 / ISRIB and DYT Parallel Direction, Pcdh19 / ISRIB and DYT Parallel Direction, Tspan7 / ISRIB and DYT Parallel Direction, Myo1e / ISRIB and DYT Parallel Direction, Plpp3 / ISRIB and DYT Parallel Direction, Sh3bp4 / ISRIB and DYT Parallel Direction, Dnajc7 / ISRIB and DYT Parallel Direction, Drg1 / ISRIB and DYT Parallel Direction, Maea: YES = protein abundance effect similar to DYT/WT; settings: EV protein abundance; for WT + ISRIB/WT Cohen's d: ISRIB-treated WT vs WT; for ISRIB and DYT Parallel Direction: WT + ISRIB vs WT, direction compared with DYT/WT

| Substance | RTV Corrective Direction (DYT-TOR1A MEF EVs) | DYT + RTV/DYT Cohen's d (DYT-TOR1A MEF EVs) | WT + ISRIB/WT Cohen's d (WT MEF EVs) | ISRIB and DYT Parallel Direction (WT MEF EVs) |
| --- | --- | --- | --- | --- |
| Ltbp1 | YES | −3.08 | 2.17 | YES |
| Col5a1 | YES | −0.89 | 0.06 | YES |

From patent US20260266848A1, “COMPOSITIONS AND METHODS FOR DIAGNOSING AND TREATING DYSTONIA” (Duke University, priority 2023, published 2026)
